According to patent US20210155814A1, “ACTIVE-ENERGY-RAY-CURABLE AQUEOUS COMPOSITION, ACTIVE-ENERGY-RAY-CURABLE AQUEOUS INK, STORED CONTAINER, IMAGE FORMING APPARATUS, IMAGE FORMING METHOD, CURED PRODUCT, AND DECORATED PRODUCT” (priority 2019, published 2021):

Key:
Female mice = test: Skin sensitization test by local lymph node assay (LLNA) method, SI value of materials; format: in vivo; settings: for SI (stimulation index, LLNA): test substance 50.0 w/v % in acetone:olive oil 4:1, 25 microliters per auricle, once a day for three days, BrdU intake by ELISA
Text: The present disclosure can provide an active-energy-ray-curable aqueous composition excellent in scratch resistance and storage stability and safe in skin sensitizing potential. Safety in skin sensitizing potential means that a SI value, which is a degree of sensitizing potential, is 3 or lower in a skin sensitization test by the LLNA method.
The “LLNA method” mentioned above is a skin sensitization test stipulated in OECD (Organisation for Economic Co-operation and Development) Test Guidelines. As described in literatures (e.g., “Functional Material”, September 2005 issue, Vol. 25, No. 9, p. 55), LLNA method judges that a stimulation index (SI value) of 3 or lower as a degree of skin sensitizing potential is non-problematic in terms of skin sensitizing potential.
The SI value was measured in the manner described below by a skin sensitization test according to a local lymph node assay (LLNA) method.
As the positive control substance, α-hexyl cinnamaldehyde (HCA, obtained from Wako Pure Chemical Industries, Ltd.) was used.
As the medium, a mixture liquid containing acetone (obtained from Wako Pure Chemical Industries, Ltd.) and olive oil (obtained from Fudimi Pharmaceutical Co., Ltd.) in a volume ratio of 4:1 (acetone:olive oil) was used.
Female mice were acclimated to the test substance, the positive control, and the medium control for 8 days including 6-day quarantine. No abnormalities were found in all of the animals during the quarantine/acclimation period.
Based on the body weights measured 2 days before the initiation of sensitization, the animals were separated into […] (4 mice/group) by the body weight stratified random sampling method in a manner that the body weight of each individual was within ±20% of the average body weight of all individuals. Each of the animals was 8 weeks old to 9 weeks old at the time of the initiation of sensitization.
The test substance was weighed out in a volumetric flask, and the volume of the test substance was adjusted to 1 mL with addition of the medium. The prepared liquid was poured into a light-blocked airtight container (formed of glass).
HCA was accurately weighed out in an amount of about 0.25 g, and adjusted to 1 mL with addition of the medium, to prepare a 25.0 w/v % liquid. The prepared liquid was poured into a light-blocked airtight container (formed of glass).
5-Bromo-2′-deoxyuridine (BrdU, obtained from Nacalai Tesque, Inc.) (200 mg) was accurately weighed out in a volumetric flask, and dissolved in saline (obtained from Otsuka Pharmaceutical Co., Ltd.) added in the flask by ultrasonic irradiation. Subsequently, the resultant was adjusted to a volume of 20 mL, to prepare a 10 mg/mL liquid (BrdU preparation liquid). The prepared liquid was sterilized by filtration through a sterilized filtration filter and poured into a sterilized container.
The preparation liquids of each test substance and the positive control substance, and the medium were each applied to both auricles of the animals by 25 microliters each. A micropipetter was used for the application. This treatment was performed once a day for three consecutive days.
About 48 hours after the final sensitization, the BrdU preparation liquid was intraperitoneally administered once by 0.5 mL per animal.
About 24 hours after the BrdU administration, the animals were subjected to euthanasia, and their auricular lymph nodes were removed. Surrounding tissues of the auricular lymph nodes were removed, and the auricular lymph nodes on both sides were collectively weighted. The average and the standard error of the weights of the auricular lymph nodes were calculated per group. After the mass measurement, the auricular lymph nodes were cryopreserved per individual in a biomedical freezer set to −20 degrees C.
After the auricular lymph nodes were returned to room temperature, the auricular lymph nodes were ground with addition of saline and suspended in the saline. […]

[1] = format: in vivo; settings: OECD TG404
Description: (§1) As a safety test, AMES test was performed according to OECD test guideline TG471 (±S9 mix), and the result was negative. Oral toxicity was tested according to OECD test guideline TG423. […] Skin stimulation was tested according to OECD test guideline TG404, and the result was PII=0.5. Skin sensitizing potential was tested according to OECD test guideline TG442B.

[2] = Oral toxicity according to OECD test guideline TG423; format: in vivo
Description: as §1

[3] = format: cell-based; settings: OECD TG471, ±S9 mix
Description: as §1

Row | SMILES | SI (stimulation index, LLNA) (Female mice) | also measured
1 | C=CC(=O)NCNC(=O)C=C [Example B2-5] | Tokyo Chemical Industry Co., Ltd., (product No. M2877), SI = 1.08 | –
2 | C=C(C)C(=O)OCC(CC)(COC(=O)C(=C)C)COC(=O)C(=C)C [Example B1-3] | Shin-Nakamura Chemical Co., Ltd., “TMPT”, SI = 1.03 | –
3 | C=CC(=O)N(C)CCCCCCN(C)C(=O)C=C [Example B2-4] | (see Synthesis example 12) SI = 1.58 | –
4 | C=CC(=O)N(C)CCOC(C)=O [Example A1-8, N-(2-Acetyloxyethyl)-N-methyl acrylamide] | (see Synthesis example 13) SI = 1.10 | –
5 | C=CC(=O)N(C)CC(=O)OCC [Example A1-2, N-acryloyl-N-methylglycineethyl ester] | (see Synthesis example 2) SI = 1.02 | –
6 | C=CC(=O)N(C)C(C)C(=O)OC (stereo not drawn) [Example A1-4, N-acryloyl-N-methylalaninemethyl ester] | (see Synthesis example 4) SI = 1.12 | –
7 | C=CC(=O)NCCN(CCNC(=O)C=C)C(=O)C=C [Example B2-9] | FUJIFILM Corporation, FOM-03007, SI = 1.44 | –
8 | C=C(C)C(=O)OCCOCCOC(=O)C(=C)C [Example B1-1] | Shin-Nakamura Chemical Co., Ltd., “2G”, SI = 1.05 | –
9 | C=CC(=O)NCCN(CCN(CCNC(=O)C=C)C(=O)C=C)C(=O)C=C [Example B2-11] | FUJIFILM Corporation, FOM-03009, SI = 1.52 | –
10 | C=C(C)C(=O)OCC(COC(=O)C(=C)C)OC(C)=O [Example B1-6, 2-acetyl-1,3-glycerol dimethacrylate] | (see Synthesis example 8) SI = 1.40 | –
11 | C=CC(=O)NCCNC(=O)C=C [Example B2-6] | Tokyo Chemical Industry Co., Ltd., (product No. E1086), SI = 1.23 | –
12 | C=CC(=O)N(C)CCN(C)C(=O)C=C [Example B2-1] | (see Synthesis example 9) SI = 1.20 | –
13 | C=CC(=O)N(C)CC(=O)OC [Example A1-1, N-acryloyl-N-methylglycinemethyl ester] | (see Synthesis example 1) SI = 1.00 | PII (skin stimulation) [1]: 0.5; Fatal cases in oral toxicity test ([2]; OECD TG423): none of six cases was a fatal case; LD50 ([2]; in vivo, 2000 mg/kg, OECD TG423, oral): ≥ 2000 mg/kg; AMES test result [3]: negative; SI value (skin sensitizing potential) (Female mice; OECD test guideline TG442B): 1.00
14 | C=CC(=O)N(CC)CCN(CC)C(=O)C=C [Example B2-2] | (see Synthesis example 10) SI = 1.33 | –
15 | C=CC(=O)N1CCC(C(=O)OCC)CC1 [Example A1-7, ethyl N-acryloylpiperidine-4-carboxylate] | (see Synthesis example 7) SI = 1.70 | –
16 | C=CC(=O)NC(O)C(O)NC(=O)C=C (stereo not drawn) [Example B2-7] | Tokyo Chemical Industry Co., Ltd., (product No. D2864), SI = 1.01 | –
17 | C=CC(=O)NCCCOCCOCCOCCCNC(=O)C=C [Example B2-10] | FUJIFILM Corporation, FOM-03008, SI = 1.24 | –
18 | C=C(C)C(=O)OCCO [Example A2-1, 2-hydroxyethyl methacrylate, reference compound] | Tokyo Chemical Industry Co., Ltd., “2-hydroxyethyl methacrylate” SI = 1.26 | –
19 | C=CC(=O)OC1CC2CCC1(C)C2(C)C (stereo not drawn) [Example A2-2, Isobornyl acrylate, reference compound] | Osaka Organic Chemical Industry Ltd., “Isobornyl acrylate”, SI = 8.30 | –
